This is an account of results in patent US10524469B2, “Acetate derived compounds from geranylorcinol. synthesis process for obtaining said compounds and use of said compounds as antifungal against Botrytis cinerea” (UNIVERSIDAD TÉCNICA FEDERICO SANTA MARÍA, priority 2015, dated 2020).

The assay deals with Botrytis cinerea. The experiment in a line: Mycelial growth inhibition of B. cinerea, radial growth method in PDA. Type of assay: cell-based. Conditions: for inhibition at 50 ppm / inhibition at 150 ppm / inhibition at 250 ppm: Botrytis cinerea; for Activity compared with the positive control when encapsulated in Pluronic F-127 micelle (in words): encapsulated in polymeric Pluronic F-127 micelle. How it is done: 20-40 milligrams of each of compounds 1 to 8 were dissolved in 500 microliters of Ethanol to have a stock solution of each compound according to its molecular weight. The stock solution was diluted in 5 mL of water so as to obtain a new stock solution of 5,000 ppm; from which corresponding aliquots were taken to achieve a final concentration on each plate with 50, 150 and 250 ppm potato dextrose agar (PDA) culture medium.
The method used for the preparation of polymeric micelles, based on Polycaprolactone (MW: 3.409 g/mol) or Pluronic® F-127 (MW: 12,500 g/mol) corresponds to the direct dissolution method consisting of the addition of the polymer to water with stirring and at room temperature, until the polymer dissolves to give a clear aqueous solution. The amount of polymer and water is chosen so as to have a solution of a concentration of 1×10^−3 M of polymer chains.
For the preparation of a solution of 50 mL of Pluronic F-127, 0.63 g is used and for the case of polycaprolactone 0.17 g is used.
The physical encapsulation of the compounds in the polymeric micelles (1×10^−3 M) is carried out by the emulsion method. The compound is dissolved in a volatile solvent (dichloromethane) and […] the polymer solution added in 100 μL aliquots to complete 400 μL reaching a concentration of 0.101 M of compound. By stirring in a vortex and applying ultrasound a very homogeneous milky emulsion is formed. The organic solvent is then removed by evaporation by heating the emulsion at 50° C. in a system open to air. Upon removal of the solvent, a clear solution remains containing the polymer forming micelles and the non-polar compounds which have been encapsulated in the hydrophobic micro-domain provided by the core of these polymeric micelles.
Subsequently, the solution is diluted by adding polymer solution corresponding to a 1×10^−3 M concentration until the compound of interest reaches a stock concentration in the range of 625-1,250 ppm in the micelle to be applied to the plate. This dilution should be done by adding polymer solution so as to maintain the same concentration of micelles and vary only the concentration of active ingredient.
In order to determine the inhibition of mycelial growth of B. cinerea, both for the free state and encapsulated compounds, the radial growth method in potato dextrose agar (PDA) culture medium was used. The compounds of interest in both free and encapsulated form were added to the PDA at different concentrations of 50, 150 and 250 ppm at a temperature of 50° C. Once the PDA had been solidified, a 4-mm diameter disc was seeded with mycelium of the pathogen in the center of the petri dish. The experiment consists of a negative control which is a petri dish where PDA culture medium and 1% Ethanol were added, in the case of Negative Control for encapsulated compounds it consists in adding only the micelle (polycaprolactone or Pluronic […]) free in PDA. In addition, a positive control containing commercially available fungicide Captan in PDA culture medium is included at the same concentrations tested in both its free form and also a positive control of Captan in its encapsulated form. Each treatment consisted of three replicates (n=3 replicates/compound/concentration).
After 48 (free state) and 72 (encapsulated system) hours of incubation at 23° C. under a photoperiod of 16 light hours/8 darkness hours, the mycelial growth inhibition percentage (MGIP) was calculated by assessing the measurement of the diameter of the fungus growth around the disc to calculate the mycelial growth inhibition area. In this way, the mycelial growth inhibition percentage that was compared to the corresponding controls after 48 hours of incubation was determined.

[1] abbreviates: encapsulated in Pluronic F-127 (Triblock) micelles, 50 ppm, 72 hours.
Where [2] appears, read: 48 h, read-out: Mycelial inhibition percentage of Botrityscinerea in vitro, free compound, 50 ppm in PDA, 48 hours of incubation.
The mark [3] stands for this setting: 48 h, read-out: Mycelial inhibition percentage of Botrityscinerea in vitro, free compound, 150 ppm in PDA, 48 hours of incubation.
[4] abbreviates: 48 h, read-out: Mycelial inhibition percentage of Botrityscinerea in vitro, free compound, 250 ppm in PDA, 48 hours of incubation.
The mark [5] stands for this setting: 72 h, read-out: Mycelial inhibition percentage of Botrityscinerea in vitro, encapsulated in Polycaprolactone (Diblock) micelles, 50 ppm, 72 hours.
Setting [6] is: 72 h, read-out: Mycelial inhibition percentage of Botrityscinerea in vitro, encapsulated in Polycaprolactone (Diblock) micelles, 150 ppm, 72 hours.
[7] abbreviates: 72 h, read-out: Mycelial inhibition percentage of Botrityscinerea in vitro, encapsulated in Polycaprolactone (Diblock) micelles, 250 ppm, 72 hours.
Where [8] appears, read: 72 h, read-out: Mycelial inhibition percentage of Botrityscinerea in vitro, encapsulated in Pluronic F-127 (Triblock) micelles, 50 ppm, 72 hours.
Where [9] appears, read: 72 h, read-out: Mycelial inhibition percentage of Botrityscinerea in vitro, encapsulated in Pluronic F-127 (Triblock) micelles, 150 ppm, 72 hours.
[10] abbreviates: 72 h, read-out: Mycelial inhibition percentage of Botrityscinerea in vitro, encapsulated in Pluronic F-127 (Triblock) micelles, 250 ppm, 72 hours.

Molecules are shown by their SMILES. Where two headings read alike, the source gives them in different places.

With `O=C1C2CC=CCC2C(=O)N1SC(Cl)(Cl)Cl` (stereo not shown) [C+ (positive control), Captan, reference compound], the “Mycelial inhibition percentage of Botrityscinerea in vitro” value (“Mycelial inhibition percentage” for short) runs as follows: under setting [1], 98%; (encapsulated in Pluronic F-127 (Triblock) micelles, 150 ppm, 72 hours) 99%; (encapsulated in Pluronic F-127 (Triblock) micelles, 250 ppm, 72 hours) 99%; (encapsulated in Polycaprolactone (Diblock) micelles, 50 ppm, 72 hours) 93%; (encapsulated in Polycaprolactone (Diblock) micelles, 150 ppm, 72 hours) 99%; (encapsulated in Polycaprolactone (Diblock) micelles, 250 ppm, 72 hours) 99%. Also, the “Mycelial inhibition percentage” value reads like this: (free compound, 50 ppm in PDA, 48 hours of incubation) 87%; (free compound, 150 ppm in PDA, 48 hours of incubation) 94%; (free compound, 250 ppm in PDA, 48 hours of incubation) 94%.

The inhibition is the drop in the measured response relative to a control, in per cent. Regarding `CC(C)=CCC/C(C)=C/Cc1c(C)cc(O)cc1O` [Formula 1], the “Effect on the mycelium of the pathogen when encapsulated in polycaprolactone micelles (in words)” value was “slightly improved”. Besides, the inhibition at 50 ppm under setting [2] amounted to 0%. The inhibition at 150 ppm under setting [3] stood at 25%. Besides, the inhibition at 250 ppm under setting [4] was 75%. For the same compound, under setting [5], the inhibition at 50 ppm stood at 37%. Further, the inhibition at 150 ppm under setting [6] is 61%. Also, under setting [7], the inhibition at 250 ppm was determined as 73%.

`CC(C)=CCC/C(C)=C/Cc1c(C)cc(O)c(C/C=C(\C)CCC=C(C)C)c1O` [Formula 2]: the “Activity compared with the positive control when encapsulated in Pluronic F-127 micelle (in words)” value is “equal to the activity of the positive control”. Also, the inhibition at 50 ppm under setting [2] was 25%. Further, the inhibition at 150 ppm under setting [3] amounted to 61%. Also, the inhibition at 250 ppm under setting [4] stood at 93%. Moreover, the inhibition at 50 ppm under setting [8] lay within 81 to 99%. Besides, the inhibition at 150 ppm under setting [9] turned out to be 91%. Also, the inhibition at 250 ppm under setting [10] stood at 96%. Moreover, under setting [5], the inhibition at 50 ppm was 16%. Also, under setting [6], the inhibition at 150 ppm is 36%. Besides, under setting [7], the inhibition at 250 ppm was 37%. Moreover, the “Mycelial inhibition percentage” value under setting [1] is 85%.

As for `CC(C)=CCC/C(C)=C/Cc1c(O)cc(C)cc1O` [Formula 3], the “Effect on the mycelium of the pathogen when encapsulated in polycaprolactone micelles (in words)” value is “inactive”. Further, the inhibition at 50 ppm under setting [2] is 37%. Under setting [3], the inhibition at 150 ppm was 65%. Moreover, under setting [4], the inhibition at 250 ppm was determined as 82%. Further, the inhibition at 50 ppm under setting [5] was determined as 9%. In addition, the inhibition at 150 ppm under setting [6] turned out to be 32%. The inhibition at 250 ppm under setting [7] stood at 42%.

Consider `CC(C)=CCC/C(C)=C/Cc1c(O)cc(O)c(C/C=C(\C)CCC=C(C)C)c1C` [Formula 4], for which the “Activity compared with the positive control when encapsulated in Pluronic F-127 micelle (in words)” value is listed as “equal to the activity of the positive control”. The inhibition at 50 ppm under setting [2] was 12%. Further, the inhibition at 150 ppm under setting [3] is 56%. Also, under setting [4], the inhibition at 250 ppm came to 83%. The inhibition at 50 ppm under setting [8] fell in the range of 81 to 99%. Moreover, the inhibition at 150 ppm under setting [9] amounted to 92%. Also, under setting [10], the inhibition at 250 ppm worked out at 96%. Moreover, the inhibition at 50 ppm under setting [5] amounted to 93%. Also, under setting [6], the inhibition at 150 ppm is 94%. Besides, the inhibition at 250 ppm under setting [7] is 97%. For the same compound, under setting [1], the “Mycelial inhibition percentage” value was determined as 82%.

Consider `CC(=O)Oc1cc(C)c(C/C=C(\C)CCC=C(C)C)c(OC(C)=O)c1` [Formula 5], for which the inhibition at 50 ppm by setting is: (encapsulated in Polycaprolactone (Diblock) micelles, 50 ppm, 72 hours, read-out: Mycelial inhibition percentage of Botrityscinerea in vitro) 16%; (free compound, 50 ppm in PDA, 48 hours of incubation, read-out: Mycelial inhibition percentage of Botrityscinerea in vitro) 24%. For the same compound, the inhibition at 150 ppm reads like this: (encapsulated in Polycaprolactone (Diblock) micelles, 150 ppm, 72 hours, read-out: Mycelial inhibition percentage of Botrityscinerea in vitro) 39%; (free compound, 150 ppm in PDA, 48 hours of incubation, read-out: Mycelial inhibition percentage of Botrityscinerea in vitro) 55%. The inhibition at 250 ppm runs as follows: (encapsulated in Polycaprolactone (Diblock) micelles, 250 ppm, 72 hours, read-out: Mycelial inhibition percentage of Botrityscinerea in vitro) 80%; (free compound, 250 ppm in PDA, 48 hours of incubation, read-out: Mycelial inhibition percentage of Botrityscinerea in vitro) 78%.

Consider `CC(=O)Oc1cc(C)c(C/C=C(\C)CCC=C(C)C)c(OC(C)=O)c1C/C=C(\C)CCC=C(C)C` [Formula 6], for which the “Activity compared with the positive control when encapsulated in Pluronic F-127 micelle (in words)” value is given as “equal to the activity of the positive control”. For the same compound, the inhibition at 50 ppm under setting [2] was found to be 5%. In addition, the inhibition at 150 ppm under setting [3] turned out to be 69%. Also, the inhibition at 250 ppm under setting [4] was determined as 97%. Besides, the inhibition at 50 ppm under setting [8] lay in the range of 81 to 99%. Further, the inhibition at 150 ppm under setting [9] was determined as 99%. Besides, the inhibition at 250 ppm under setting [10] amounted to 99%. Moreover, under setting [5], the inhibition at 50 ppm is 10%. Under setting [6], the inhibition at 150 ppm was 31%. In addition, the inhibition at 250 ppm under setting [7] was 50%. For the same compound, the “Mycelial inhibition percentage” value under setting [1] is reported as 93%.

Turning to `CC(=O)Oc1cc(C)cc(OC(C)=O)c1C/C=C(\C)CCC=C(C)C` [Formula 7], the inhibition at 50 ppm by setting is: under setting [2], 8%; under setting [5], 32%. For the same compound, the inhibition at 150 ppm is, setting by setting: under setting [3], 51%; under setting [6], 35%. Besides, the inhibition at 250 ppm is, setting by setting: under setting [4], 82%; under setting [7], 59%.

Consider `CC(=O)Oc1cc(OC(C)=O)c(C/C=C(\C)CCC=C(C)C)c(C)c1C/C=C(\C)CCC=C(C)C` [Formula 8], for which the “Activity compared with the positive control when encapsulated in Pluronic F-127 micelle (in words)” value is given as “equal to the activity of the positive control”. Besides, the inhibition at 50 ppm under setting [2] turned out to be 11%. Also, the inhibition at 150 ppm under setting [3] was found to be 54%. The inhibition at 250 ppm under setting [4] is 85%. In addition, under setting [8], the inhibition at 50 ppm lay within 81 to 99%. Besides, the inhibition at 150 ppm under setting [9] was found to be 99%. Under setting [10], the inhibition at 250 ppm stood at 99%. For the same compound, the inhibition at 50 ppm under setting [5] was found to be 0%. In addition, under setting [6], the inhibition at 150 ppm came to 36%. Moreover, under setting [7], the inhibition at 250 ppm turned out to be 36%. The “Mycelial inhibition percentage” value under setting [1] turned out to be 93%.
